target: T1, 6HIS-Tev-LRRK2 (1326-2527) (Homo sapiens, UniProt Q5S007); assay: Recombinant LRRK2 enzyme peptide substrate TR-FRET assay; type: biochemical; conditions: 60 nM LRRK2 enzyme; 10 uM ATP; read-out: pIC50 in the recombinant LRRK2 enzyme peptide substrate TR-FRET assay (converted)
T1 construct: A LRRK2 cDNA encoding residues 1326-2527 was received from Dundee University; made in house; host or cells: Spodoptera frugiperda Sf9 (baculovirus, pFB-HTb)
T1 sequence (Q5S007 1326-2527): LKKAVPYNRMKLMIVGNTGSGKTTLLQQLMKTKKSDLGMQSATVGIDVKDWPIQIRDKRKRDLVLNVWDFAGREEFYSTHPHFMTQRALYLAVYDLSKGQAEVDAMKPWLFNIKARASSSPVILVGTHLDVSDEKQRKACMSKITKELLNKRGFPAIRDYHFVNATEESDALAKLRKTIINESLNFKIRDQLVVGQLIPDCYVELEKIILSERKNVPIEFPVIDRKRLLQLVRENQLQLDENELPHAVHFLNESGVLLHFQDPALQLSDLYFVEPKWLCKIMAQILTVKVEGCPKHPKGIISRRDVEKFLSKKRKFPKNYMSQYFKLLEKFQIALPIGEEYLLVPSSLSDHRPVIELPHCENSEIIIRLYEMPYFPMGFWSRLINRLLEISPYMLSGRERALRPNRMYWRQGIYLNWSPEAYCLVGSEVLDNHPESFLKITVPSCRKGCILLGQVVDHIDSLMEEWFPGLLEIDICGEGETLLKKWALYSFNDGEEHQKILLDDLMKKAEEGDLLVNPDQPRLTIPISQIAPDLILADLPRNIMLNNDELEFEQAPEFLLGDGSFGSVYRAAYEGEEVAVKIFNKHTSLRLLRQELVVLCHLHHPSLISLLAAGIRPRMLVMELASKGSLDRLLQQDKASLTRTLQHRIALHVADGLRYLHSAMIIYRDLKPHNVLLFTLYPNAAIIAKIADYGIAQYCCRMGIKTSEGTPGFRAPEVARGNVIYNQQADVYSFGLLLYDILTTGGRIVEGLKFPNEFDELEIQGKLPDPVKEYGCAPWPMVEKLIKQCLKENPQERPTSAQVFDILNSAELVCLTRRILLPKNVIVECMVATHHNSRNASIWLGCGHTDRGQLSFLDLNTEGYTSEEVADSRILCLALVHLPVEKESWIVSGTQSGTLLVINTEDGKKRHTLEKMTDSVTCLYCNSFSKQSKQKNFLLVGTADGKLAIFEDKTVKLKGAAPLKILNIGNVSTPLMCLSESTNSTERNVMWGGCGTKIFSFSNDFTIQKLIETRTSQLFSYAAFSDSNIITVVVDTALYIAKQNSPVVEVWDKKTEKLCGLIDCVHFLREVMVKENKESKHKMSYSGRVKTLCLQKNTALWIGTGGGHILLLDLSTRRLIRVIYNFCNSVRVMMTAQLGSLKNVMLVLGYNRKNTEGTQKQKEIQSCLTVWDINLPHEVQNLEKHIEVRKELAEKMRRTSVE
Protocol: A LRRK2 cDNA encoding residues 1326-2527 was received from Dundee University (described in M. Jaleel et al., 2007, Biochem J, 405: 407-417). This gene fragment was subcloned into pFB-HTb (Invitrogen) using BamHI and NotI restriction sites. The LRRK2 plasmid was recombined into the baculovirus genome according to the BAC-to-BAC protocol described by Invitrogen. Transfection into Spodoptera frugiperda (Sf9) insect cells was performed using Cellfectin (Invitrogen), according to the manufacturer's protocol to generate P1 and P2 baculovirus stocks.
Sf9 cells were grown in HyClone SFX (Thermo Scientific) growth media at 27° C., 80 rpm in shake flask until of a sufficient volume to inoculate a bioreactor. The cells were grown in a 20 liter working volume Wave bioreactor (GE Healthcare) at 27° C., 50% dissolved oxygen and an agitation rate 22 rocks per minute, 10 degree rock angle, 200 ml/min air with a cell concentration of approximately 6×e6 cells/ml. The cells were infected with P2 Baculovirus at a multiplicity of infection (MOI) of 3. The cultivation was continued for a 48 hour expression phase. The infected cells were removed from the growth media by centrifugation at 2500 g using a Sorvall RC 3C Plus centrifuge at 2500 g for 20 minutes. The cell pellet was immediately frozen and subsequently supplied for purification.
A 260 g pellet was allowed to thaw in a water bath at 27° C. with 800 ml lysis buffer/buffer A (50 mm Tris-HCl pH 8.5, 300 mM NaCl, 1 mm DTT, 10% glycerol, 1 ml/L calbiochem complete protease inhibitor cocktail and benzonase (50 ul/800 ml)) before being dounce homogenised on ice using 20 strokes per 100 ml. The suspension was packed in ice and sonicated at 50% amplitude for 3 min 10 sec on/off using a ¾″ probe. The suspension was then centrifuged at 100,000 g for 90 min, at 4° C.
The lysate (700 ml) was decanted from the insoluble pellet and contacted for 3 h at 4 C with 10 ml His bind Ni NTA resin by end over end mixing. The resin was recovered by centrifugation, 3000 g, 5 min at 4 C, and packed in an XK16 column. The column was then washed with 10 column volumes buffer A, 10 column volumes buffer B (buffer A+1M NaCl) and 10 column volumes buffer C (buffer A+20 mM imidazole). The column was then eluted with 15 column volumes buffer D (buffer A+300 mM imidazole) collecting 2 ml fractions. All washes and elution were conducted at 4 ml/min.
Fractions identified by SDS-PAGE as containing protein of interest were pooled and loaded directly onto a 320 ml SEC Superdex 200 pg column that was pre-equilibrated with buffer E (50 mM Tris-HCl pH 8.5, 300 mM NaCl, 10% glycerol, 1 mM DTT). The column was loaded and eluted with 1.2 column volumes buffer E at 2 ml/min collecting 2 ml fractions. Fractions identified by SDS-PAGE as containing protein of interest were tested for activity.
Production of Biotin-Loner LRRKtide
The peptide (biotin-[…]-OH) was assembled at a […] scale using FMOC solid phase peptide synthesis on an ACT 357 MPS automated peptide synthesizer. The resulting crude peptide was cleaved from the resin using a 95:2.5:2.5 mix of trifluoroacetic acid: triisopropylsilane: water. The crude cleaved peptide was purified by reverse phase HPLC, eluting with a 5-35% gradient of 0.1% trifluoroacetic acid/acetonitrile in 0.1% trifluoroacetic acid/water.
Recombinant LRRK2 Enzyme Peptide Substrate TR-FRET Assay
This assay for LRRK2 inhibition is based on the detection of phosphorylation of the peptide ‘longer LRRKtide’ (biotin-[…]-OH) using a time resolved-fluorescence resonance energy transfer (TR-FRET) assay. It uses an antibody labelled europium chelate donor, W-1024 (Eu) and Streptavidin-Surelight APC acceptor (APC). When in close proximity, the excitation of Eu at 330 nm leads to energy transfer to APC with emission of light at 665 nm,
Assay Protocol • 1. A 10 mM test compound was dissolved in 100% DMSO and serially diluted 1 in 4. […]

IC50 [nM]	SMILES
≤ 100	CCOc1nc(Nc2cnn(C3CCCC3(C)O)c2C)nc2[nH]ccc12 (single isomer, unassigned) [Example E78, trans-2-(4-((4-ethoxy-7H-pyrrolo-[2,3-d]pyrimidin-2-yl)amino)-5-methyl-1H-pyrazol-1-yl)-1-methylcyclopentanol]
≤ 100	CCOc1nc(Nc2cn(C3CCN(C)CC3)nc2C)nc2[nH]ccc12 [Example E19, 4-ethoxy-N-(3-methyl-1-(1-methylpiperidin-4-yl)-1H-pyrazol-4-yl)-7H-pyrrolo-[2,3-d]-pyrimidin-2-amine]
≤ 100	Cc1c(Nc2nc(OCC3CC3)c3cn[nH]c3n2)cnn1CC(C)(C)O [Example E24, 1-(4-((4-(cyclopropylmethoxy)-1H-pyrazolo-[3,4-d]-pyrimidin-6-yl)amino)-5-methyl-1H-pyrazol-1-yl)-2-methylpropan-2-ol]

Reference: patent US10618901B2 (GlaxoSmithKline Intellectual Property Development Limited, priority 2014, dated 2020)
